The results in this text go back to ChEMBL document CHEMBL3046787, “Molecular modeling studies of some substituted chalcone derivatives as cysteine protease inhibitors” (Med Chem Res, 2012).

Each structure is given as a SMILES string.

In the assay the test system is Plasmodium falciparum. The assay can be described thus: Inhibition of Plasmodium falciparum W2.

As to `COc1ccc(C(=O)/C=C/c2ccc(F)cc2F)c(OC)c1`, the IC50 is 11100 nM (read-out: IC50) and 11100 nM (read-out: pIC50 (converted)).

For `COc1ccc(C(=O)/C=C/c2ccc(Cl)cc2Cl)c(OC)c1`, the IC50 reads like this: (read-out: IC50) 3800 nM; (read-out: pIC50 (converted)) 3800 nM.

Consider `COc1ccc(/C=C/C(=O)c2ccccn2)cc1`, for which the IC50 is, setting by setting: (read-out: IC50) 12000 nM; (read-out: pIC50 (converted)) 12000 nM.

For `COc1ccc(/C=C/C(=O)c2ccc(F)cc2F)c(OC)c1`, the IC50 runs as follows: (read-out: IC50) 1900 nM; (read-out: pIC50 (converted)) 1900 nM.

Regarding `COc1ccc(/C=C/C(=O)c2ccc(Cl)cc2Cl)c(OC)c1`, the IC50 runs as follows: (read-out: IC50) 900 nM; (read-out: pIC50 (converted)) 899 nM.

Regarding `COc1ccc(OC)c(/C=C/C(=O)c2ccc3ccccc3c2)c1`, the IC50 is, setting by setting: (read-out: IC50) 5000 nM; (read-out: pIC50 (converted)) 5000 nM.

Regarding `COc1cccc(OC)c1/C=C/C(=O)c1ccc2ccccc2c1`, the IC50 runs as follows: (read-out: IC50) 3300 nM; (read-out: pIC50 (converted)) 3300 nM.

On to `COc1cc(/C=C/C(=O)c2cccc3ccccc23)cc(OC)c1OC`, for which the IC50 is 4800 nM (read-out: IC50) and 4800 nM (read-out: pIC50 (converted)).

For the molecule `COc1cc(/C=C/C(=O)c2ccc3ccccc3c2)cc(OC)c1OC`, the IC50 runs as follows: (read-out: IC50) 6000 nM; (read-out: pIC50 (converted)) 6000 nM.

For the molecule `COc1ccc(/C=C/C(=O)c2ccc3ccccc3c2)cc1OC`, the IC50 by setting is: (read-out: IC50) 7700 nM; (read-out: pIC50 (converted)) 7690 nM.

Consider `COc1ccc(/C=C/C(=O)c2ccc(Cl)cc2Cl)c(OC)c1OC`, for which the IC50 was 360 nM (read-out: IC50) and 360 nM (read-out: pIC50 (converted)).

As to `COc1ccc(/C=C/C(=O)c2cc3ccccc3nc2Cl)cc1OC`, the IC50 is 510 nM (read-out: IC50) and 511 nM (read-out: pIC50 (converted)).

As for `O=C(/C=C/c1cccnc1)c1cc2ccccc2nc1Cl`, the IC50 is, setting by setting: (read-out: IC50) 710 nM; (read-out: pIC50 (converted)) 710 nM.

Take `COc1ccc(OC)c(/C=C/C(=O)c2ccc(Cl)cc2Cl)c1`: the IC50 was 750 nM (read-out: IC50) and 750 nM (read-out: pIC50 (converted)).

Regarding `COc1cccc(OC)c1/C=C/C(=O)c1ccc(Cl)cc1`, the IC50 was 770 nM (read-out: IC50) and 769 nM (read-out: pIC50 (converted)).

Turning to `O=C(/C=C/c1ccc(Cl)c(Cl)c1)c1ccnc2ccccc12`, the IC50 (read-out: IC50) stood at 800 nM and the IC50 (read-out: pIC50 (converted)) is 800 nM.

For the molecule `COc1ccc(/C=C/C(=O)c2cc3ccccc3nc2Cl)c(OC)c1`, the IC50 (read-out: IC50) came to 1000 nM and the IC50 (read-out: pIC50 (converted)) was 1000 nM.

Turning to `O=C(/C=C/c1ccc(F)cc1F)c1cc2ccccc2nc1Cl`, the IC50 (read-out: IC50) stood at 1000 nM and the IC50 (read-out: pIC50 (converted)) was 1000 nM.

`COc1ccc(OC)c(/C=C/C(=O)c2cccc(Cl)c2Cl)c1`: the IC50 is, setting by setting: (read-out: IC50) 920 nM; (read-out: pIC50 (converted)) 920 nM.

Take `COc1ccc(/C=C/C(=O)c2cccc(Cl)c2Cl)cc1OC`: the IC50 reads like this: (read-out: IC50) 1140 nM; (read-out: pIC50 (converted)) 1140 nM.

Turning to `COc1ccc(/C=C/C(=O)c2cccc(Cl)c2Cl)c(OC)c1`, the IC50 by setting is: (read-out: IC50) 1380 nM; (read-out: pIC50 (converted)) 1380 nM.

In the case of `COc1ccc(/C=C/C(=O)c2ccc(F)c(F)c2)c(OC)c1`, the IC50 is 2090 nM (read-out: IC50) and 2090 nM (read-out: pIC50 (converted)).

On to `COc1ccc(/C=C/C(=O)c2cccc3ccccc23)cc1OC`, for which the IC50 runs as follows: (read-out: IC50) 5000 nM; (read-out: pIC50 (converted)) 5000 nM.

Turning to `COc1cc(/C=C/C(=O)c2cccc3ccccc23)cc(OC)c1`, the IC50 was 4300 nM (read-out: IC50) and 4300 nM (read-out: pIC50 (converted)).

Turning to `COc1cc(/C=C/C(=O)c2ccc3ccccc3c2)cc(OC)c1`, the IC50 (read-out: IC50) worked out at 9500 nM and the IC50 (read-out: pIC50 (converted)) was 9510 nM.

In the case of `COc1ccc(/C=C/C(=O)c2cccc3ccccc23)c(OC)c1OC`, the IC50 by setting is: (read-out: IC50) 5800 nM; (read-out: pIC50 (converted)) 5790 nM.

For the molecule `COc1ccc(/C=C/C(=O)c2cccnc2)cc1`, the IC50 is, setting by setting: (read-out: IC50) 10000 nM; (read-out: pIC50 (converted)) 10000 nM.

In the case of `COc1ccc(/C=C/C(=O)c2ccncc2)cc1`, the IC50 is, setting by setting: (read-out: IC50) 12000 nM; (read-out: pIC50 (converted)) 12000 nM.

In the case of `COc1ccc(/C=C/C(=O)c2ccccn2)c(OC)c1`, the IC50 is, setting by setting: (read-out: IC50) 1700 nM; (read-out: pIC50 (converted)) 1700 nM.

As for `COc1ccc(/C=C/C(=O)c2cccnc2)c(OC)c1`, the IC50 was 2700 nM (read-out: IC50) and 2700 nM (read-out: pIC50 (converted)).

On to `COc1ccc(OC)c(/C=C/C(=O)c2ccccn2)c1`, for which the IC50 is 1400 nM (read-out: IC50) and 1400 nM (read-out: pIC50 (converted)).

As to `COc1ccc(/C=C/C(=O)c2ccccn2)c(OC)c1OC`, the IC50 reads like this: (read-out: IC50) 2300 nM; (read-out: pIC50 (converted)) 2300 nM.

For `COc1ccc(/C=C/C(=O)c2cccnc2)c(OC)c1OC`, the IC50 (read-out: IC50) came to 3900 nM and the IC50 (read-out: pIC50 (converted)) is 3900 nM.

Turning to `COc1ccc(/C=C/C(=O)c2ccncc2)c(OC)c1OC`, the IC50 was 3200 nM (read-out: IC50) and 3200 nM (read-out: pIC50 (converted)).

With `O=C(/C=C/c1cc(Cl)ccc1Cl)c1ccnc2ccccc12`, the IC50 runs as follows: (read-out: IC50) 230 nM; (read-out: pIC50 (converted)) 230 nM.

`COc1ccc(/C=C/C(=O)c2cccc3ccccc23)cc1`: the IC50 is, setting by setting: (read-out: IC50) 10000 nM; (read-out: pIC50 (converted)) 10000 nM.

Take `COc1ccc(/C=C/C(=O)c2cccc3ccccc23)c(OC)c1`: the IC50 runs as follows: (read-out: IC50) 4600 nM; (read-out: pIC50 (converted)) 4600 nM.

In the case of `COc1ccc(OC)c(/C=C/C(=O)c2cccc3ccccc23)c1`, the IC50 (read-out: IC50) stood at 2800 nM and the IC50 (read-out: pIC50 (converted)) was 2800 nM.

For the molecule `COc1cccc(OC)c1/C=C/C(=O)c1cccc2ccccc12`, the IC50 (read-out: IC50) is 3100 nM and the IC50 (read-out: pIC50 (converted)) was 3100 nM.

As for `O=C(/C=C/c1ccc(-n2ccnc2)cc1)c1ccc(Cl)cc1Cl`, the IC50 is 1180 nM (read-out: IC50) and 1180 nM (read-out: pIC50 (converted)).

For `COc1ccc(/C=C/C(=O)c2ccc(C(F)(F)F)cc2)c(OC)c1`, the IC50 runs as follows: (read-out: IC50) 750 nM; (read-out: pIC50 (converted)) 750 nM.
